The target of one assay is T1, TRα (Homo sapiens, UniProt P10827).
T1 construct: TR expression vector (full length TRα-CMV or TRβ-CMV); expressed in transfected cells; host or cells: HEK 293
T1 sequence (P10827 1-410 isoform P10827-2): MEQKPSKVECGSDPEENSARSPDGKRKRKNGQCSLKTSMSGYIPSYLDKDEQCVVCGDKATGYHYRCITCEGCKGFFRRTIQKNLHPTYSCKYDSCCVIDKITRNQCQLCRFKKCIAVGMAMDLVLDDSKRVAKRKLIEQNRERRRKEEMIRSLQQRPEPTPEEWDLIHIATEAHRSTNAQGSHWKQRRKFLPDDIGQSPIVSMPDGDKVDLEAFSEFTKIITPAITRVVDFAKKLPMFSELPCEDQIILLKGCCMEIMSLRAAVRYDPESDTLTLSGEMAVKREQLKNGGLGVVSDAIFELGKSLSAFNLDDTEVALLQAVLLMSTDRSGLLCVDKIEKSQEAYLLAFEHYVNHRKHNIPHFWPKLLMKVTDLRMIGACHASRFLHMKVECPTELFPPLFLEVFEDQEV
The assay can be described thus: Transactivation assay (DR4 TRE luciferase reporter, HEK 293), TRα. It is filed as cell-based. To be noted: HEK 293 transfected with full length TRα-CMV, 24 hours, firefly luciferase normalized to Renilla. The method, then: (§1) The cells were trypsinized with 0.25% trypsin, then diluted to 5×10^5 cells/mL with high glucose DMEM. […] 1.5 µg of TR expression vector (full length TRα-CMV or TRβ-CMV), 1.5 µg of a reporter plasmid containing a DR4 thyroid hormone response element (TRE) direct repeat spaced by four nucleotides (AGGTCAcaggAGGTCA) cloned upstream of a minimal thymidine kinase promoter linked to a firefly luciferase coding sequence, and 0.75 µg of a pRL-SV40 constitutive Renilla luciferase reporter plasmid were diluted into 540 µl of OptiMEM. 27 µL of lipofectamine reagent was diluted into 540 µL of OptiMEM. The plasmid and lipofectamine dilutions were combined then incubated at RT for 10 min. The mixture was then diluted into 4.29 mL of OptiMEM. Plates were washed with 100 µL of phosphate buffered saline (PBS) at pH 7.2 without magnesium or calcium chloride per well. Transfection mixtures were added at 50 µL per well, then incubated at 37° C. for 4 hours. Modified DME/F-12 Ham’s medium without phenol red containing 15 mM HEPES and bicarbonate, 5 mM L-glutamine, charcoal-stripped FBS, 50 units/mL penicillin and 50 µg/mL streptomycin was added at 50 µL per well, then the plates were incubated at 37° C. for 20 hours. Drug stocks were made at 10 mM in DMSO, then serially diluted to 1X concentrations in DME/F-12 Ham’s. Plates were washed with 100 µL of PBS (pH 7.2) per well. 100 µL of each drug stock was added to the wells in triplicate, and then the plates are incubated at 37° C. for 24 hours.
(§2) Cells were assayed for luciferase activity using the Promega DualGlo kit. 50 µl of Luciferase Reagent was added per well, the plate was rocked for 15 min at RT, and then the plate was read for firefly luciferase activity. A 50 µl volume of Stop & Glo Reagent was added per well, then the plate was read for Renilla luciferase activity.

In a further assay the target is T2, TRβ (Homo sapiens, UniProt P10828).
T2 construct: TR expression vector (full length TRα-CMV or TRβ-CMV); expressed in transfected cells; host or cells: HEK 293
T2 sequence (P10828 1-461): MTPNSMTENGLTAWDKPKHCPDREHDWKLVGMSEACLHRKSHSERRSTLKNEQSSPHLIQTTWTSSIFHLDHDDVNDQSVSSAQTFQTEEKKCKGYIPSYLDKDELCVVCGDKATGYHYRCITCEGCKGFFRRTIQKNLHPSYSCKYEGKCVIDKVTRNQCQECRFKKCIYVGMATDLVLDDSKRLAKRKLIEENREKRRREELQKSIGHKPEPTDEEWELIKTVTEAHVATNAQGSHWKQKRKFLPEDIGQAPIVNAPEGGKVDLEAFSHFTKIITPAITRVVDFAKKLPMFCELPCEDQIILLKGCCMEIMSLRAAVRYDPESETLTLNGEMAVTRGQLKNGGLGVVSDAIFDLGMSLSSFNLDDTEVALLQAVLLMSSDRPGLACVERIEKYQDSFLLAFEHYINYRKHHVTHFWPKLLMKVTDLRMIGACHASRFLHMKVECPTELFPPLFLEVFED
The assay can be described thus: Transactivation assay (DR4 TRE luciferase reporter, HEK 293), TRβ. It is filed as cell-based. The following applies: HEK 293 transfected with full length TRβ-CMV, 24 hours, firefly luciferase normalized to Renilla. The method, then: as §1, §2

Assay [1] addresses T3, Purified recombinant human FAAH (rhFAAH) (Homo sapiens, UniProt O00519).
T3 construct: purchased Cayman Chemical (Ann Arbor, MI, USA)
T3 sequence (O00519 1-579): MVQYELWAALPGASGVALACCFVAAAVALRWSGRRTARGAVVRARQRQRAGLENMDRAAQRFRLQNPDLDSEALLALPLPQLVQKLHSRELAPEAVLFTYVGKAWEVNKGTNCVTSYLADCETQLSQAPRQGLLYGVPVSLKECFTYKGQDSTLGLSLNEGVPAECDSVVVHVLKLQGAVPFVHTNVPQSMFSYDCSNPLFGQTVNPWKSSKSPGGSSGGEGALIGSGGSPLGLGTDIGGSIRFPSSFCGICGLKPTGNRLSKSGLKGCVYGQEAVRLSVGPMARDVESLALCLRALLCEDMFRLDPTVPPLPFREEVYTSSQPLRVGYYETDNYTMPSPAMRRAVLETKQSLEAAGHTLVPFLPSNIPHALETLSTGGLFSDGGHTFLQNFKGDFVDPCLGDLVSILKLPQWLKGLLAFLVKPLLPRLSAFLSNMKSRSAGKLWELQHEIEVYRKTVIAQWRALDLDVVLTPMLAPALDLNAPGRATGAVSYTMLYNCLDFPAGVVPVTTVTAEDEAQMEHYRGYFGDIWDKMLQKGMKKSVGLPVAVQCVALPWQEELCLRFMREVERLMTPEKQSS
The assay can be described thus: FAAH substrate evaluation (formation of acid metabolite). The following applies: 0.5 ng/µL rhFAAH, 1 µM test compound, Tris-EDTA buffer pH 8.0, room temperature, 0-60 minutes. The class given is biochemical. The method, then:
Purified recombinant human FAAH (rhFAAH) was purchased from Cayman Chemical (Ann Arbor, MI, USA). The total volume for each incubation was 400 µL containing a final 0.5 ng/µL rhFAAH, 1 µM test compound, 1.25% ethanol or 1 µM PF-3845 (FAAH inhibitor), and 0.1% bovine serum albumin in Tris-EDTA buffer at pH 8.0). The positive control was LL-341001. The incubation was conducted at the room temperature. At 0, 5, 15, 30 and 60 minutes, an aliquot of 30 µL reaction mixtures was removed and mixed with 300 µL acetonitrile containing 5 ng/mL terfenadine and 10 ng/mL tolbutamide as internal standards to quench the reaction. The resulting mixture was centrifuged at 4000 rpm, 4° C. for 15 minutes, and 100 µL supernatant was ready for LC-MS/MS analysis to measure the formation of acid metabolite.
Acquity Ultra Performance LC system from Waters was used for sample analysis. The chromatography was performed on a reverse phase Kinetex 2.6 µm C18 column, 2.1 × 30 mm, 100 Å. The mobile phase A comprised of 0.1% formic acid in water and mobile phase B comprised of 0.1% formic acid in acetonitrile with a 2-min run time at the flow rate of 0.8 mL/min for the acid metabolite from positive control or a 1.5 min run time at the flow rate of 0.9 mL/min for the acid metabolite of test compounds. The mass spectrometer (API-5500 and API Q Trap 4000 Applied Biosystems/MDS SCIEX Instruments, Framingham, MA, USA) was operated under ESI positive or negative ion MRM mode.
The formation of acid metabolite was monitored and quantified using one calibration point of 1 µM. The observed rate constant (ke) for the acid metabolite formation was calculated by plotting the metabolite concentration versus time of incubation with the slope being ke and is shown in Table 1.

Regarding “2-(3,5-dichloro-4-(hydroxy-3-(propan-2-yl-d7)benzyl)phenoxy)acetic Acid [Compound 18]”, the EC50 on TRα and at TRβ was 1 to 1000 nM in each case.
`[2H]C([2H])([2H])C([2H])(c1cc(Cc2c(Cl)cc(OCC(=O)NC)cc2Cl)ccc1O)C([2H])([2H])[2H]` [Compound 1, 2-(3,5-dichloro-4-(4-hydroxy-3-(propan-2-yl-d7)benzyl)phenoxy)-N-Methylacetamide]: the “ke (observed rate constant for the acid metabolite formation)” value (“ke” below) in assay [1] is “A (A = ke is less than 3.0 and more than or equal to 0.1.)”.
Consider `[2H]C([2H])(c1ccc(O)c(C(C)C)c1)c1c(Cl)cc(OCC(=O)O)cc1Cl` [Compound 4, 2-(3,5-dichloro-4-((4-hydroxy-3-isopropylphenyl)methyl-d2)phenoxy)acetic Acid], for which the EC50 on TRα and at TRβ was 1 to 1000 nM throughout.
In the case of `[2H]C([2H])(c1ccc(O)c(C(C)C)c1)c1c(Cl)cc(OCC(N)=O)cc1Cl` [Compound 5, 2-(3,5-dichloro-4-((4-hydroxy-3-isopropylphenyl)methyl-d2)phenoxy)acetamide], in assay [1], the “ke” value is “A (A = ke is less than 3.0 and more than or equal to 0.1.)”.
Regarding `[2H]c1c(Cl)c(Cc2ccc(O)c(C(C)C)c2)c(Cl)c([2H])c1OCC(=O)O` [Compound 6, 2-(3,5-dichloro-4-(4-hydroxy-3-isopropylbenzyl)phenoxy-2,6-d2)acetic Acid], the concentration for a half-maximal effect (EC50) on TRα and on TRβ was 1 to 1000 nM in each case.
For the compound `[2H]c1c(Cl)c(Cc2ccc(O)c(C(C)C)c2)c(Cl)c([2H])c1OCC(N)=O` [Compound 7, 2-(3,5-dichloro-4-(4-hydroxy-3-isopropylbenzyl)phenoxy-2,6-d2)acetamide], the “ke” value in assay [1] was “A (A = ke is less than 3.0 and more than or equal to 0.1.)”.
On to `[2H]C([2H])(Oc1cc(Cl)c(Cc2ccc(O)c(C(C)C)c2)c(Cl)c1)C(=O)O` [Compound 8, 2-(3,5-dichloro-4-(4-hydroxy-3-isopropylbenzyl)phenoxy)acetic-2,2-d2 Acid], for which the EC50 at TRα and on TRβ was 1 to 1000 nM in each case.
As to `[2H]C([2H])(Oc1cc(Cl)c(Cc2ccc(O)c(C(C)C)c2)c(Cl)c1)C(N)=O` [Compound 9, 2-(3,5-dichloro-4-(4-hydroxy-3-isopropylbenzyl)phenoxy)acetamide-2,2-d2], the “ke” value in assay [1] is “A (A = ke is less than 3.0 and more than or equal to 0.1.)”.
Still for that read-out and setting: next, `[2H]C([2H])(c1ccc(O)c(C(C)C)c1)c1c(C)cc(OCC(=O)NC)cc1C` [Compound 13, 2-(4-((4-hydroxy-3-isopropylphenyl)methyl-d2)-3,5-dimethylphenoxy)-N-methylacetamide]: “A (A = ke is less than 3.0 and more than or equal to 0.1.)”; `[2H]C([2H])(Oc1cc(C)c(Cc2ccc(O)c(C(C)C)c2)c(C)c1)C(=O)NC` [Compound 17, 2-(4-(4-hydroxy-3-isopropylbenzyl)-3,5-dimethylphenoxy)-N-methylacetamide-2,2-d2]: “A (A = ke is less than 3.0 and more than or equal to 0.1.)”.
As to `[2H]C([2H])([2H])C([2H])(c1cc(Cc2c(Cl)cc(OCC(=O)O)cc2Cl)ccc1O)C([2H])([2H])[2H]` [Compound A-15], the EC50 at TRα and on TRβ was 1 to 1000 nM each time.

The record behind these values is patent US20230348364A1, “ISOTOPIC THYROMIMETIC COMPOUNDS” (Autobahn Therapeutics, Inc., priority 2020, published 2023).
